Each structure is given as a SMILES string. Some results are limits rather than exact numbers.

Common to all, as to assay type: in vivo
One experiment has as its system Tetranychus urticae. Nature of the experiment: Insecticidal/acaricidal test, Tetranychus urticae (spider mites - adult), contact. Particulars: 72 h, French bean leaf, 3 days, read-out: grading of mortality, TU. The protocol: The activity of the Product was determined using a variety of insect and acarine pests. The Product was used in the form of liquid preparations containing 500, 250 or 100 parts per million (ppm) by weight of the Product. The preparations were made by dissolving the Product in acetone and diluting the solutions with water containing 0.01% by weight of a wetting agent sold under the trade name "LISSAPOL" NX until the liquid preparations contained the required concentratio of the Product. "Lissapol" is a Registered Trade Mark.
The test procedure adopted with regard to each pest was basically the same and comprised supporting a number of the pests on a medium which was usually a host plant or a foodstuff on which the pests feed, and treating either or both the pests and the medium with the preparations. The mortality of the pests was then assessed at periods usually varying from one to three days after the treatment.
The results of the tests are given in Table IV for each of the Products, at the rate in parts per million given in the second column as a grading of mortality designated as A, B or C wherein A indicates 80-100% mortality or knockdown (70-100% in the case of Spodoptera exigua), B indicates 50-79% mortality or knockdown (50-69% in the case of Spodoptera exigua) and C indicates less than 50% mortality or knockdown.
In Table IV the pest organism used is designated by a letter code and the pest species, the support medium or food, and the type and duration of test is given in Table III.

The test system of the next experiment is Myzus persicae. The experiment is described as follows: Insecticidal test, Myzus persicae (aphids), contact. Particulars: 72 h, Chinese Cabbage leaf, 3 days, read-out: grading of mortality, MP. In a few lines: (§1)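 Product applied at 500, 250 or 100 ppm as acetone solution diluted in water with 0.01% Lissapol NX wetting agent, onto pests and/or their host plant or food medium. Mortality or knockdown scored 1–3 days after treatment and graded A (80–100%; 70–100% for S. exigua), B (50–79%; 50–69% for S. exigua) or C (<50%).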

The test system of the next experiment is Nilaparvata lugens. Nature of the experiment: Insecticidal test, Nilaparvata lugens (brown planthopper), contact. The conditions noted are these: 72 h, Cabbage leaf, 3 days, read-out: grading of mortality, NL. Summed up:
as §1

The subject of experiment [1] is Musca domestica. The experiment is described as follows: Knockdown test, Musca domestica (houseflies - adults). Particulars: cotton wool/sugar, 4 hours, read-out: grading of knockdown, MD/KD. Summed up:
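Knockdown scores were banded: A 80–100%, B 50–79%, C <50%. Test preparations of 500, 250 or 100 ppm compound were made in acetone, then diluted with water containing 0.01% Lissapol NX, and applied to Musca domestica adults.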

Experiment [2] relates to Musca domestica. Nature of the experiment: Insecticidal test, Musca domestica (houseflies - adults), contact. The conditions noted are these: 24 h, cotton wool/sugar, 1 day, read-out: grading of mortality, MD. Summed up: as §1
A further experiment relates to Blattella germanica. The experiment is described as follows: Insecticidal test, Blattella germanica (cockroach nymphs), residual. The conditions noted are these: 72 h, plastic pot, 3 days, read-out: grading of mortality, BG. Summed up: as §1
Another experiment has as its system Heliothis virescens. The experiment is described as follows: whole plant or invertebrate. The conditions noted are these: in Gossypium hirsutum, 72 h, read-out: grading of mortality, HV. Summed up: as §1
The subject of another experiment is Diabrotica balteata. The experiment is described as follows: Insecticidal test, Diabrotica balteata (rootworm larvae), residual. The conditions noted are these: 72 h, filter paper/maize seed, 3 days, read-out: grading of mortality, DB. Summed up: as §1

With `CCCc1ccc(C(Cl)(COCc2ccc(F)c(Oc3ccccc3)c2)C(F)(F)F)cc1` (stereo not drawn) [Compound 53, 1,1,1-Trifluoro-2-chloro-2-(4-n-propylphenyl)-3-(3-phenoxy-4-fluorobenzyloxy)propane], the mortality at 500 ppm in the experiment on Tetranychus urticae, with Myzus persicae, in the experiment on Nilaparvata lugens, in the experiment on Musca domestica [2], in the experiment on Blattella germanica and in the experiment on Heliothis virescens was 80 to 100% in each case. Also, the mortality (in general, the percentage killed) at 500 ppm in the experiment on Diabrotica balteata is 80 to 100%. In the experiment with Musca domestica [1], the pest or weed control at 500 ppm lay in the range of 80 to 100%.
Regarding `FC(F)(F)C(COCc1cccc(Oc2ccccc2)c1)c1ccc(Cl)cc1` (stereo not drawn) [Compound 16, 1,1,1-Trifluoro-2-(4-chlorophenyl)-3-(3-phenoxybenzyloxy)propane], the mortality at 100 ppm in the experiment with Tetranychus urticae was under 50%; with Myzus persicae, 80 to 100%; in the experiment with Nilaparvata lugens, 80 to 100%; with Musca domestica [2], 80 to 100%; with Blattella germanica it was 80 to 100%; with Heliothis virescens it was 80 to 100%. Moreover, the mortality at 100 ppm in the experiment on Diabrotica balteata was in the range of 80 to 100%. For the same compound, the pest or weed control at 100 ppm with Musca domestica [1] was 80 to 100%.
For `CCOc1ccc(C(F)(COCc2cccc(-c3ccccc3)c2C)C(F)(F)F)cc1` (stereo not drawn) [Compound 80, 1,1,1,2-Tetrafluoro-2-(4-ethoxyphenyl)-3-(2-methyl-3-phenylbenzyloxy)propane], the mortality at 500 ppm in the experiment on Tetranychus urticae was under 50%; in the experiment on Myzus persicae, 80 to 100%; with Nilaparvata lugens it was 80 to 100%; in the experiment with Musca domestica [2], 80 to 100%; in the experiment on Blattella germanica it was 80 to 100%; in the experiment on Heliothis virescens, under 50%. Also, the mortality at 500 ppm in the experiment with Diabrotica balteata is 80 to 100%. Further, the pest or weed control at 500 ppm in the experiment with Musca domestica [1] was in the range of 80 to 100%.
With `FC(F)(F)Oc1ccc(C(COCc2cccc(Oc3ccccc3)c2)C(F)(F)F)cc1` (stereo not drawn) [Compound 27, 1,1,1-Trifluoro-2-(4-trifluoromethoxyphenyl)-3-(3-phenoxybenzyloxy)propane], the mortality at 100 ppm in the experiment on Tetranychus urticae, with Myzus persicae, with Nilaparvata lugens, in the experiment with Musca domestica [2], in the experiment on Blattella germanica and in the experiment with Heliothis virescens was 80 to 100% throughout. Further, the mortality at 100 ppm in the experiment with Diabrotica balteata lay in the range of 80 to 100%. In addition, in the experiment on Musca domestica [1], the pest or weed control at 100 ppm was under 50%.
With `CCOc1ccc(C(COCc2cccc(Oc3ccc(Br)cc3)c2)C(F)(F)F)cc1` (stereo not drawn) [Compound 9, 1,1,1-Trifluoro-2-(4-ethoxyphenyl)-3-(3-(4-bromophenoxy)benzyloxy)propane], the mortality at 250 ppm with Tetranychus urticae was 50 to 79%; in the experiment with Myzus persicae, under 50%; in the experiment on Nilaparvata lugens, under 50%; in the experiment on Musca domestica [2], 80 to 100%; with Blattella germanica, 80 to 100%; with Heliothis virescens it was 80 to 100%. For the same compound, in the experiment on Diabrotica balteata, the mortality at 250 ppm fell in the range of 80 to 100%. Further, the pest or weed control at 250 ppm in the experiment on Musca domestica [1] was 80 to 100%.
In the case of `CCCc1ccc(C(COCc2ccc(F)c(Oc3ccccc3)c2)C(F)(F)F)cc1` (stereo not drawn) [Compound 20, 1,1,1-Trifluoro-2-(4-n-propylphenyl)-3-(3-phenoxy-4-fluorobenzyloxy)propane], the mortality at 100 ppm in the experiment with Tetranychus urticae, in the experiment with Myzus persicae, in the experiment on Nilaparvata lugens, with Musca domestica [2], with Blattella germanica and in the experiment with Heliothis virescens was 80 to 100% each time. In the experiment on Diabrotica balteata, the mortality at 100 ppm fell in the range of 80 to 100%. Moreover, the pest or weed control at 100 ppm in the experiment on Musca domestica [1] is 80 to 100%.
Take `CCOc1ccc(C(COCc2cccc(Oc3ccccc3)c2)C(F)(F)F)cc1` (stereo not drawn) [Compound 1, 1,1,1-trifluoro-2-(4-ethoxyphenyl)-3-(3-phenoxybenzyloxy)propane]: the mortality at 500 ppm in the experiment with Tetranychus urticae, in the experiment with Myzus persicae, in the experiment with Nilaparvata lugens, in the experiment with Musca domestica [2], in the experiment with Blattella germanica and in the experiment on Heliothis virescens was 80 to 100% each time. In the experiment on Diabrotica balteata, the mortality at 500 ppm lay within 80 to 100%. Besides, in the experiment on Musca domestica [1], the pest or weed control at 500 ppm was 80 to 100%.
Regarding `Fc1ccc(COCC(Cl)(c2ccc3c(c2)CCC3)C(F)(F)F)cc1Oc1ccccc1` (stereo not drawn) [Compound 52, 1,1,1,-Trifluoro-2-chloro-2-(5-indanyl)-3-(3-phenoxy-4-fluorobenzyloxy)propane], the mortality at 500 ppm in the experiment with Tetranychus urticae is under 50%; in the experiment with Myzus persicae it was under 50%; in the experiment with Nilaparvata lugens, under 50%; in the experiment on Musca domestica [2], 50 to 79%; in the experiment on Blattella germanica, 80 to 100%; in the experiment with Heliothis virescens, 50 to 79%. In addition, the mortality at 500 ppm in the experiment on Diabrotica balteata was under 50%. Also, in the experiment on Musca domestica [1], the pest or weed control at 500 ppm lay within 80 to 100%.
For the compound `CCOc1ccc(C(Cl)(COCc2cccc(Oc3ccc(Cl)cc3)c2)C(F)(F)F)cc1` (stereo not drawn) [Compound 42, 1,1,1-Trifluoro-2-chloro-2-(4-ethoxyphenyl)-3-(3-(4-chlorophenoxy)benzyloxy)propane], the mortality at 250 ppm with Tetranychus urticae was under 50%; with Myzus persicae, 80 to 100%; in the experiment on Nilaparvata lugens, 80 to 100%; with Musca domestica [2] it was 80 to 100%; with Blattella germanica, 80 to 100%; in the experiment with Heliothis virescens, 80 to 100%. Moreover, the mortality at 250 ppm in the experiment with Diabrotica balteata was 50 to 79%. Besides, in the experiment with Musca domestica [1], the pest or weed control at 250 ppm was in the range of 80 to 100%.
Turning to `CCOc1ccc(C(Cl)(COCc2ccc(F)c(Oc3ccc(Cl)cc3)c2)C(F)(F)F)cc1` (stereo not drawn) [Compound 44, 1,1,1-Trifluoro-2-chloro-2-(4-ethoxyphenyl)-3-(3-(4-chlorophenoxy)-4-fluorobenzyloxy)propane], the mortality at 500 ppm in the experiment on Tetranychus urticae is under 50%; in the experiment on Myzus persicae it was 80 to 100%; with Nilaparvata lugens it was 80 to 100%; with Musca domestica [2] it was 80 to 100%; with Blattella germanica, 80 to 100%; with Heliothis virescens it was 80 to 100%. The mortality at 500 ppm in the experiment on Diabrotica balteata fell in the range of 50 to 79%. Besides, in the experiment on Musca domestica [1], the pest or weed control at 500 ppm was in the range of 80 to 100%.
For the compound `CCOc1ccc(C(Cl)(COCc2coc(Cc3ccccc3)c2)C(F)(F)F)cc1` (stereo not drawn) [Compound 45, 1,1,1-Trifluoro-2-chloro-2-(4-ethoxyphenyl)-3-(5-benzyl-3-furanylmethyloxy)propane], the mortality at 250 ppm in the experiment with Tetranychus urticae is 50 to 79%; in the experiment on Myzus persicae it was under 50%; in the experiment on Nilaparvata lugens it was under 50%; in the experiment on Musca domestica [2], under 50%; in the experiment on Blattella germanica, under 50%; in the experiment on Heliothis virescens, under 50%. In addition, the mortality at 250 ppm in the experiment with Diabrotica balteata is under 50%. In the experiment on Musca domestica [1], the pest or weed control at 250 ppm was 80 to 100%.
For `Fc1ccc(COCC(c2ccc3c(c2)CCC3)C(F)(F)F)cc1Oc1ccccc1` (stereo not drawn) [Compound 19, 1,1,1-Trifluoro-2-(5-indanyl)-3-(3-phenoxy-4-fluorobenzyloxy)propane], the mortality at 250 ppm with Tetranychus urticae was under 50%; in the experiment with Myzus persicae, 80 to 100%; in the experiment with Nilaparvata lugens it was 80 to 100%; with Musca domestica [2] it was 80 to 100%; with Blattella germanica it was 80 to 100%; with Heliothis virescens, 80 to 100%. Further, the mortality at 250 ppm in the experiment on Diabrotica balteata was 80 to 100%. In the experiment on Musca domestica [1], the pest or weed control at 250 ppm lay in the range of 80 to 100%.

The values are drawn from patent US5225607A, “Insecticidal ethers” (Imperial Chemical Industries PLC, priority 1985, dated 1993).
